Assay results: ChEMBL document CHEMBL1201862, “PubChem BioAssay data set” (2004)
The source made the active and inactive calls.

Key:
[1] = viability of uninfected HEp-2 cells – cell-based, HTS, cytotoxicity control for RSV inhibitor project, dose response (AID 2410); type: functional; details: human respiratory syncytial virus
Fatty acid synthase [2] = target: T1, Fatty acid synthase (Homo sapiens, UniProt P49327); experiment: inhibition of human FAS-TE enzyme activity – biochemical, kinetic fluorescence intensity, dose response (AID 624326); type: functional;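 also: rate of fluorescence rise from hydrolysis of a fluorogenic O-methyl fluorescein ester substrate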
T1 sequence (P49327 whole entry): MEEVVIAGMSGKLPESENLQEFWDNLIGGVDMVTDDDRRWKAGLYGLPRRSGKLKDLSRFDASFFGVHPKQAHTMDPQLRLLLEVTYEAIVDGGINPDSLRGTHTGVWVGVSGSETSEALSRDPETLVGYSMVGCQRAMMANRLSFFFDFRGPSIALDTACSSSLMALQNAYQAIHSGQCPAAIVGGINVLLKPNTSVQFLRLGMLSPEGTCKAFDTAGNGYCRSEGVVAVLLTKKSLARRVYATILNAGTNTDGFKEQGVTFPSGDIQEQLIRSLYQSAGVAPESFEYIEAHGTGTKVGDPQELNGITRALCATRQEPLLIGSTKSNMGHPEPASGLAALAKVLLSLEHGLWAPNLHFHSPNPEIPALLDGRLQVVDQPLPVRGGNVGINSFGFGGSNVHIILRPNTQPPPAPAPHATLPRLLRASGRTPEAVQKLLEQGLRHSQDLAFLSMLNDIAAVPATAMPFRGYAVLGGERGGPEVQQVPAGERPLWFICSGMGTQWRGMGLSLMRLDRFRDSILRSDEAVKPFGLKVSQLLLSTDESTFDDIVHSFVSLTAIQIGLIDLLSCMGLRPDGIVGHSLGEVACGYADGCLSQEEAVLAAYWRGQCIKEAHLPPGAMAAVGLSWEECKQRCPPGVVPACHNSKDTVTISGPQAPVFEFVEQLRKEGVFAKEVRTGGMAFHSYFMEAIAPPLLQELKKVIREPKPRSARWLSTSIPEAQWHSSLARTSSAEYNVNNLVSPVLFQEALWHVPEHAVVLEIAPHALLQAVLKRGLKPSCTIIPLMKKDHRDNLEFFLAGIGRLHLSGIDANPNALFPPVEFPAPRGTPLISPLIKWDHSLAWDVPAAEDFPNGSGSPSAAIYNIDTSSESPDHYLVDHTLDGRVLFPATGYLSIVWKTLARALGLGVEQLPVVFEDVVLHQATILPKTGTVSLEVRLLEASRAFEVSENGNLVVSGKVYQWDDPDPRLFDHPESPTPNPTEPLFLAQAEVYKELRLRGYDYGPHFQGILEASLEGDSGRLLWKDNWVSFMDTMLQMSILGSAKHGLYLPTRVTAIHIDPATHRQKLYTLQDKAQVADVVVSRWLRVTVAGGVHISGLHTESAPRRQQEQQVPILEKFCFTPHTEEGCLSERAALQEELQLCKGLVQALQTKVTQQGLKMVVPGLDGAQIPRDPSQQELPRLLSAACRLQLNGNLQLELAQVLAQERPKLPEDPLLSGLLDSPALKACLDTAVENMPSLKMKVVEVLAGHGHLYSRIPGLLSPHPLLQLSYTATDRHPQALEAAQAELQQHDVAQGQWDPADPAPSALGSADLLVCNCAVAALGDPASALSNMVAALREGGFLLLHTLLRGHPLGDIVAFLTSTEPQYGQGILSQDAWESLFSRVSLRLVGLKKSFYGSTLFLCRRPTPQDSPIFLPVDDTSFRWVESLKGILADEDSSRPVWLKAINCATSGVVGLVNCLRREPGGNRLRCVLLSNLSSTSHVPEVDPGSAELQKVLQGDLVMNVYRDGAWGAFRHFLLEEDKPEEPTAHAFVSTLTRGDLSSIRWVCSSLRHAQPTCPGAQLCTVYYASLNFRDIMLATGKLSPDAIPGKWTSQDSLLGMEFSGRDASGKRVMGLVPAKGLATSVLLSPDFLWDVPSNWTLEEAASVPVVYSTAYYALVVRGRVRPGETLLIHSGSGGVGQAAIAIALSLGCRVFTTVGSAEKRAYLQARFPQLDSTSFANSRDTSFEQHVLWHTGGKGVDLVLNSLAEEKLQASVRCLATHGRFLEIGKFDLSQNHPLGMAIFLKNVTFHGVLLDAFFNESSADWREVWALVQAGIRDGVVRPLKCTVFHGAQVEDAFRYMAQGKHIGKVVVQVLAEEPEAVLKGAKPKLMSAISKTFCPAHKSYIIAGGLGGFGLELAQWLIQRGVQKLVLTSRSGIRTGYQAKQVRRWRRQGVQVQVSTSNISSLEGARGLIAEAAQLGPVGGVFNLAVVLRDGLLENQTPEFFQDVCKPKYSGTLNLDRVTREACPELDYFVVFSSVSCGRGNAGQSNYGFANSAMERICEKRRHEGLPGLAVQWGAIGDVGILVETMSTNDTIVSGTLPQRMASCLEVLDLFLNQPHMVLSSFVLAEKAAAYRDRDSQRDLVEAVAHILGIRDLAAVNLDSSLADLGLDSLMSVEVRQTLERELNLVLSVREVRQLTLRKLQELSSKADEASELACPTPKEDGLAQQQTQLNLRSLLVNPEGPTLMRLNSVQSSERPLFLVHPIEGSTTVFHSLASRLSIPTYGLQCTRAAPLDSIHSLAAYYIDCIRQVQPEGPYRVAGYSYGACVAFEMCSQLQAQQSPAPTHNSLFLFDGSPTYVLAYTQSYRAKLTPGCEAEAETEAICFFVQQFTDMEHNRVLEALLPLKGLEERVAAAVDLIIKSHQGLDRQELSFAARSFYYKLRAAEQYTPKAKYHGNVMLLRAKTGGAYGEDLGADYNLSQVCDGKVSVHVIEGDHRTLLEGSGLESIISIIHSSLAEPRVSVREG

Cytochrome P450 2C9 = Cytochrome P450 2C9 (Homo sapiens, UniProt P11712)
Fatty acid synthase [3] = target: T1, Fatty acid synthase; experiment: inhibition of human FAS-TE enzyme activity – biochemical, endpoint fluorescence intensity, uHTS hits, dose response (AID 624327); type: functional;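 also: fluorescence from hydrolysis of an O-methyl fluorescein acyl ester substrate by the enzyme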
[4] = target: Heat shock cognate 71 kDa protein (Homo sapiens, UniProt P11142); experiment: In Vitro Hsc70 Dose Response Fluorescence Polarization Assay. [Related pubchem assays: 1072 ]
Heat shock cognate 71 kDa protein, sequence (P11142 whole entry): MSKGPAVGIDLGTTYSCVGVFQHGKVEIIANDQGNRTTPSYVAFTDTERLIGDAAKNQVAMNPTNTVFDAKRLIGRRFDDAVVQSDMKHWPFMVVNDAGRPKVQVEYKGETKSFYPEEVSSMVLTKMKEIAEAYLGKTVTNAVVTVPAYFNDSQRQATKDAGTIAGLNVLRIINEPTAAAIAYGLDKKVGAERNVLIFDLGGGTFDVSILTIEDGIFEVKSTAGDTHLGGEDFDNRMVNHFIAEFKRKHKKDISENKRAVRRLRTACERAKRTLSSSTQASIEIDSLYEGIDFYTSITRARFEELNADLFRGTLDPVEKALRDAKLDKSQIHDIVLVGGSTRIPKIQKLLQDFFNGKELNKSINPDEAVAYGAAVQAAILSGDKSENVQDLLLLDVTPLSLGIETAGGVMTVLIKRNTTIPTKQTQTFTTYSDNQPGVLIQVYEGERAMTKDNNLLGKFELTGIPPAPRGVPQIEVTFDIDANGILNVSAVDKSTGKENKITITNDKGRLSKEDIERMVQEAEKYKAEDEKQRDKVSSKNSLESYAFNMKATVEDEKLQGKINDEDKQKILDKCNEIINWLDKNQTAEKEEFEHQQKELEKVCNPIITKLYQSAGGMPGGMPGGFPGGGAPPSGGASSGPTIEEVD

[5] = target: Heat shock 70 kDa protein 1A (Homo sapiens, UniProt P0DMV8); experiment: inhibition of Hsp70 binding activity – biochemical, fluorescence polarization, SAR follow-up (AID 1072)
Heat shock 70 kDa protein 1A, sequence (P0DMV8 whole entry): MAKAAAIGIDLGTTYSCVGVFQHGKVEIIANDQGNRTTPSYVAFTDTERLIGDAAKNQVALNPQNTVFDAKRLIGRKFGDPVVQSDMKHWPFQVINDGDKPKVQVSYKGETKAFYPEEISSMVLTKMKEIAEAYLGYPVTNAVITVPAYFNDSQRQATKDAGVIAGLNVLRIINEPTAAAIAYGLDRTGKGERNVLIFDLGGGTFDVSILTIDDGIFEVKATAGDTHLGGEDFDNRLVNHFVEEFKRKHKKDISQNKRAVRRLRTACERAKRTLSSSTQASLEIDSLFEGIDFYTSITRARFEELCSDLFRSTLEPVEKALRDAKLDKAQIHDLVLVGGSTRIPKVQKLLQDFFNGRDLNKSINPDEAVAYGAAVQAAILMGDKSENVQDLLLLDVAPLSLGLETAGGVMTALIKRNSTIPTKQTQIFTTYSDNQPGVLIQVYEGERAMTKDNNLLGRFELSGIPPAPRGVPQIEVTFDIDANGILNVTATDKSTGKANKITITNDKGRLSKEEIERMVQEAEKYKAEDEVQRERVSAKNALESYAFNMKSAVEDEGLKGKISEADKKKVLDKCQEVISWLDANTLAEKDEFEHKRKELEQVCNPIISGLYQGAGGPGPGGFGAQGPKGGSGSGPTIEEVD

Vero = experiment: cells; type: functional, cell-based; details: Chlorocebus sabaeus
[6] = target: 72 kDa type IV collagenase (Homo sapiens, UniProt P08253); experiment: Dose Response validation of uHTS RPN11 inhibitor hits using a MMP-2 Fluorescence assay.; type: functional
Insulin-degrading enzyme = target: T2, Insulin-degrading enzyme (Homo sapiens, UniProt P14735); experiment: Dose Response: Fluorescence polarization-based cell-based high throughput dose response assay for inhibitors of insulin-degrading enzyme (IDE). [Related pubchem assays: 434962 (Primary screen (IDE inhibitors in singlicate)), 449730 (Counterscreen (Cytotoxicity in triplicate)), 435028 (Confirmation (IDE inhibitors in triplicate)), 434984 (Summary …; type: functional
T2 sequence (P14735 whole entry): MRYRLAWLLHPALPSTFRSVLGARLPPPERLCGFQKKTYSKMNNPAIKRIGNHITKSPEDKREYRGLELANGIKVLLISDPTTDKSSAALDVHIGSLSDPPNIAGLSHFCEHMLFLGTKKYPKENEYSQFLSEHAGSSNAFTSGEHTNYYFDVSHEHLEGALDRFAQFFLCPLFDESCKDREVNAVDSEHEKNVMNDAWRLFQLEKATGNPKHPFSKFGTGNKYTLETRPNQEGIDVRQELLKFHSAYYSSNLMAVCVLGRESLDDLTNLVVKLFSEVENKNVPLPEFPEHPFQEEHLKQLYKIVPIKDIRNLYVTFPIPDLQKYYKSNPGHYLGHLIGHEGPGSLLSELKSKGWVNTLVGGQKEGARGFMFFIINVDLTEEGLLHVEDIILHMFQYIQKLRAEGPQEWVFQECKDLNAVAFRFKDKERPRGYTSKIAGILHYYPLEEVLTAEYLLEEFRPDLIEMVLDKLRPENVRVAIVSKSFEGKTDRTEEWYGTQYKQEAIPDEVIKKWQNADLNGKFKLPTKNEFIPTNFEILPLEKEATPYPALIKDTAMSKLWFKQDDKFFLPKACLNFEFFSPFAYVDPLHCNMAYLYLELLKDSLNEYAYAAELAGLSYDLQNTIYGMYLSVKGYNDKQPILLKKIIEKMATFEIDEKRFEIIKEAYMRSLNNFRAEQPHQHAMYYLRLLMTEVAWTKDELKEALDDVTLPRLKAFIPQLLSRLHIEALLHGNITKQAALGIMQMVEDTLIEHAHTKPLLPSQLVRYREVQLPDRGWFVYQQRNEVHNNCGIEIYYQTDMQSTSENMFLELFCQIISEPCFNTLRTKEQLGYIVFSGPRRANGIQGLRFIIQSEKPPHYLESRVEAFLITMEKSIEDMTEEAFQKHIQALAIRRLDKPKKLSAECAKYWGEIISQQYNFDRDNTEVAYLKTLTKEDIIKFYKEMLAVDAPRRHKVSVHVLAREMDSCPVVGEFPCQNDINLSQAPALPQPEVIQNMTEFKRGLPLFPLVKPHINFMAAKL

[7] = Counterscreen for IDE inhibitors: Luminescence-based cell-based high throughput dose response assay to identify compounds that are cytotoxic to HEK cells. [Related pubchem assays: 434962 (Primary screen (IDE inhibitors in singlicate)), 449730 (Counterscreen (Cytotoxicity in triplicate)), 435028 (Confirmation (IDE inhibitors in triplicate)) …; type: functional; details: HEK293
[8] = target: 26S proteasome non-ATPase regulatory subunit 14 (Homo sapiens, UniProt O00487); experiment: inhibition of proteasome subunit RPN11 – biochemical, fluorescence polarization, uHTS hits, confirmation (AID 602368); type: functional
26S proteasome non-ATPase regulatory subunit 14, sequence (O00487 whole entry): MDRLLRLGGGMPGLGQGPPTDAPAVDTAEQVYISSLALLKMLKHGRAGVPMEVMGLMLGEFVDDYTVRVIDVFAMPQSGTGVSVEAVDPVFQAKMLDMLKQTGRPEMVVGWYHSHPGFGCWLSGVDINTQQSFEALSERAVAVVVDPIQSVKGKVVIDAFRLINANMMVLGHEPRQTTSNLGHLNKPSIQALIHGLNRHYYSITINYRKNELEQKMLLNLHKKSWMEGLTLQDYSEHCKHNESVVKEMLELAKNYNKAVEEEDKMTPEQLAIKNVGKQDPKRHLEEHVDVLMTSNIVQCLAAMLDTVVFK

Prothrombin = Prothrombin (Bos taurus, UniProt P00735); experiment: thrombin protease inhibitors – biochemical, fluorescence polarization, uHTS hits, dose response (AID 602369); type: functional
[9] = target: Glyceraldehyde-3-phosphate dehydrogenase (Homo sapiens, UniProt P04406)
Glyceraldehyde-3-phosphate dehydrogenase, sequence (P04406 whole entry): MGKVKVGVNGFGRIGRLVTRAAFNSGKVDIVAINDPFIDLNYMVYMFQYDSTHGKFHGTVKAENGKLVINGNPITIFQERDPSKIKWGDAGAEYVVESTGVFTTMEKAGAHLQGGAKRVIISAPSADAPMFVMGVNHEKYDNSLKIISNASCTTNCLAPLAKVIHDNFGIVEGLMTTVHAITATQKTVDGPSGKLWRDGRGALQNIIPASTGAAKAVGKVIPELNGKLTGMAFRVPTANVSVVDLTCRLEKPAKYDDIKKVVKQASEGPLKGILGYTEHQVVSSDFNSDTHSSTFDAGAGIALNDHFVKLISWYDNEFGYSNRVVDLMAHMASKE

[10] = target: T3, DNA repair protein RAD52 homolog (Homo sapiens, UniProt P43351); type: functional, biochemical
T3 sequence (P43351 whole entry): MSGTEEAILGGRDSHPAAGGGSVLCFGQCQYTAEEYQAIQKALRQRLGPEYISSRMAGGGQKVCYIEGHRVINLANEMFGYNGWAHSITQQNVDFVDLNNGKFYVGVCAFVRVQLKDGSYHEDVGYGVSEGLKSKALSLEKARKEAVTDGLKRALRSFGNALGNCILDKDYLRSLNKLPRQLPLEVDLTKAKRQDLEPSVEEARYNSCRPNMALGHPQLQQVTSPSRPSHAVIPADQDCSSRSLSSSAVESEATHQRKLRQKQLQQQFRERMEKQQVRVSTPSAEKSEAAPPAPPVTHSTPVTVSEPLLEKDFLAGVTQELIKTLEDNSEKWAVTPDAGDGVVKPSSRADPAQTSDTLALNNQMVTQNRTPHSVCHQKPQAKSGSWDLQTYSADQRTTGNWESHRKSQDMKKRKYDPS

[11] = target: T4, DNA repair and recombination protein RAD54-like (Homo sapiens, UniProt Q92698); experiment: RAD54 Holliday junction migration blockers – biochemical, fluorescence, cherry-picked samples, dose series, confirmation (AID 651657); type: functional
T4 sequence (Q92698 whole entry): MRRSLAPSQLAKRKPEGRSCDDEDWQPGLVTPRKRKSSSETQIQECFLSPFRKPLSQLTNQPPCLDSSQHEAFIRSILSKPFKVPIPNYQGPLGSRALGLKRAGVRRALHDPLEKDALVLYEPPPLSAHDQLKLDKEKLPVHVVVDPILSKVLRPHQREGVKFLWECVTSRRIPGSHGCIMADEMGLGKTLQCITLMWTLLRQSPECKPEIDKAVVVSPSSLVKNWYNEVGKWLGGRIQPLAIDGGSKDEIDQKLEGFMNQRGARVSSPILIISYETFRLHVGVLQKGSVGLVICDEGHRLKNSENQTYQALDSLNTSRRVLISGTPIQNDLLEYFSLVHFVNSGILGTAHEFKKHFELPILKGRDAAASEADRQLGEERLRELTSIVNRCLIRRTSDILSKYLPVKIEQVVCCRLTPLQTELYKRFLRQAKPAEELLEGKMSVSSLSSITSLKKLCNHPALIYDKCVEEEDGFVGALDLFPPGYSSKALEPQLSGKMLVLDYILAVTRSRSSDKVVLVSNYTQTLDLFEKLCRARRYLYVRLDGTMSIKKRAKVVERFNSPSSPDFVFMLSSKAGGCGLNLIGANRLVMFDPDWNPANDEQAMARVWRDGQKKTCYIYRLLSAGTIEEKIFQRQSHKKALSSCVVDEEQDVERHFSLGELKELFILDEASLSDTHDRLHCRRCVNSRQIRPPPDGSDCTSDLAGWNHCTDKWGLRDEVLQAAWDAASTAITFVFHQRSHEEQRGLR

Bcl-2-like protein 10 = target: T5, Bcl-2-like protein 10 (Homo sapiens, UniProt Q9HD36); experiment: Bcl-B/TR3 peptide binding disruption – biochemical, fluorescence polarization, FITC-TR3 peptide, selectivity assay for Bfl-1 inhibitor project, primary screen (AID 748);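 also: fluorescence polarization from a fluorescein-labelled TR3 peptide binding purified Bcl-B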
T5 sequence (Q9HD36 whole entry): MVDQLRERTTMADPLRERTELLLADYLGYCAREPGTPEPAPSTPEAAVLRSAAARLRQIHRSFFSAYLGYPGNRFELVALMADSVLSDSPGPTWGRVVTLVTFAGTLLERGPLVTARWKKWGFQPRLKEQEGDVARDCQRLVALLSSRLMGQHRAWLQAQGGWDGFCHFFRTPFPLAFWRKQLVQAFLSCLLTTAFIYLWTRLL

[12] = target: T6, Short transient receptor potential channel 4 (Mus musculus, UniProt Q9QUQ5); experiment: block of DAMGO-driven TRPC4 calcium entry – cell-based, HEK293 TRPC4/mu-opioid, Fluo-4 calcium, dose response (AID 434942); type: functional;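 also: potency of inhibitors blocking the TRPC4 calcium response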
T6 sequence (Q9QUQ5 whole entry): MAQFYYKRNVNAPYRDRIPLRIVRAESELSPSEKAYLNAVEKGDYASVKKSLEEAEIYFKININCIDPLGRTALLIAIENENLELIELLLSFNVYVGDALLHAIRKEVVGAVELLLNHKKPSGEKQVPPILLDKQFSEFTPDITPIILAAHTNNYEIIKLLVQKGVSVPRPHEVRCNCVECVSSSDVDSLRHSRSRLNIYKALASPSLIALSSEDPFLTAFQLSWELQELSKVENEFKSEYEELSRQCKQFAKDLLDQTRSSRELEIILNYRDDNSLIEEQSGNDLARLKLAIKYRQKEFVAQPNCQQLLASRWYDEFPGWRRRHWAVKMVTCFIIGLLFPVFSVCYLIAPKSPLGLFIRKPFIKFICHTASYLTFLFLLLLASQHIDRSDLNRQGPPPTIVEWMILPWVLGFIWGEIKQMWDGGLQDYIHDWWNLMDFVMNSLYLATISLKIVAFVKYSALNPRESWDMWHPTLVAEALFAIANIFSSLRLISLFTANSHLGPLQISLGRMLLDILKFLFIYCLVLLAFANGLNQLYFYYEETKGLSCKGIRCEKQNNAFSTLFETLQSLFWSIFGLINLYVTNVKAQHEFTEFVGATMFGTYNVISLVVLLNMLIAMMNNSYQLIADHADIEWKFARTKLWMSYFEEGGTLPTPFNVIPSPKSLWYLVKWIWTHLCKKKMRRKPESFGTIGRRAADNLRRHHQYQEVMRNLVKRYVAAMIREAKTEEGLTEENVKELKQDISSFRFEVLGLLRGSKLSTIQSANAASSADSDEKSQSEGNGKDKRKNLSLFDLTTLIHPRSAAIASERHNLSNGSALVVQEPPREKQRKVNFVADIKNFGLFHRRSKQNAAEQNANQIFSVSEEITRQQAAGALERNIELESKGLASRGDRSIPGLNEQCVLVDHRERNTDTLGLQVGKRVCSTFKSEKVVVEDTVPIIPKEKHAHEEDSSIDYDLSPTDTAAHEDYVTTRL

HT-1080 = experiment: HT1080 cell viability loss – fluorescence readout (AID 620); type: functional, cell-based; details: Homo sapiens
[13] = target: Luciferin 4-monooxygenase (Photinus pyralis, UniProt P08659); experiment: Counter Screen for Luciferase-based Assay Positives. [Related pubchem assays: 620, 618, 411 ]
Luciferin 4-monooxygenase, sequence (P08659 whole entry): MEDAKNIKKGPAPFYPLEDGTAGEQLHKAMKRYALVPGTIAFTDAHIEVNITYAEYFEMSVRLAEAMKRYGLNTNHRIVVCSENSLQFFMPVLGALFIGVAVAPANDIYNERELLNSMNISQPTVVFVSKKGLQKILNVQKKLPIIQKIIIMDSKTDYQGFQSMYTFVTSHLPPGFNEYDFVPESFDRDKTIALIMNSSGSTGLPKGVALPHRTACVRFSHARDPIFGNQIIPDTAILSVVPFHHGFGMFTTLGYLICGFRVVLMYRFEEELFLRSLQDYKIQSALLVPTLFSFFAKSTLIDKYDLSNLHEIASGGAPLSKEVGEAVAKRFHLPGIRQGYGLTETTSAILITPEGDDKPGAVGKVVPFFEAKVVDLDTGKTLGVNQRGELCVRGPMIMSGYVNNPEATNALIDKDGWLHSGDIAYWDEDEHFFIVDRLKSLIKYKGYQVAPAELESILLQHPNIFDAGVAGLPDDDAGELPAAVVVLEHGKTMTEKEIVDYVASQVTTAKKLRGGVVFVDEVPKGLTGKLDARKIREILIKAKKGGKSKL

[14] = NIH3T3 cell viability loss – ATP luminescence, mouse fibroblasts, counter-screen, dose response (AID 2010); type: functional, cell-based;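 also: cells exposed to compound for about 90 hours before reading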
Large T antigen = Large T antigen (Simian virus 40, UniProt P03070); type: functional, Betapolyomavirus macacae;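 also: Confirmatory-stage PubChem screen for compounds that inhibit SV40 T antigen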
[15] = Luminescence Cell-Based Dose Response HTS to Identify Activators of Luciferase Translation or Activity in H4 […] Cells. [Related pubchem assays: 1829 (Project Summary), 1814 (Primary HTS)]; type: functional
[16] = Luminescence Cell-Based Dose Confirmation HTS to Identify Activators of 5'UTR Stem-Loop Driven Alpha-Synuclein mRNA Translation in H4 Neuroglioblastoma Cells. [Related pubchem assays: 1829 (Project Summary), 1814 (Primary HTS)]; type: functional
INS1 = experiment: INS-1E survival protection against cytokine death – cell-based, luminescence, retest, dose response (AID 449756); type: functional; details: Rattus norvegicus, INS1;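 also: cell death triggered by IL-1 beta plus TNF-alpha plus IFN-gamma mixture; protective hits raise ATP signal compared with cytokine alone wells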
[17] = Trypanosoma cruzi growth suppression in host cells – NIH3T3 host cells, beta-gal luminescence, confirmation (AID 2044); type: functional, cell-based;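 also: intracellular parasites grown in NIH/3T3 mouse fibroblasts as host cells; luminescent beta-galactosidase reporter signal from transgenic T. cruzi replicating inside host cells; inhibitors lower the luminescence signal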
H4 = experiment: Luminescence Cell-Based Dose Response HTS to Identify Activators of 5'UTR Stem-Loop Driven Prion Protein mRNA Translation in H4 Neuroglioblastoma Cells. [Related pubchem assays: 1829 (Project Summary), 1814 (Primary HTS)]; type: functional; details: Homo sapiens

Cc1ccc2cc3cc(C(=O)N4CCCCC4C)oc3nc2c1 (stereo unspecified)
CC50 [1]: > 50 µM (active)
IC50 (Fatty acid synthase [2]): 4.44 µM (active)
IC50 (cells): 21.4 µM (active)
AC50 (Cytochrome P450 2C9): inconclusive
IC50 (Fatty acid synthase [3]): 2.28 µM (active)

O=C(O)CCc1c2ccc(=O)c(O)c-2oc2c(O)c(O)ccc12
IC50 [4]: 3.98 µM (active)
IC50 [5]: 0.578 µM (active)

Cc1ccc(C(=O)Nc2ccccc2SCC2CSc3nc4ccccc4c(=O)n32)cc1 (stereo unspecified)
CC50 [1]: 27.7 µM (active)
IC50 (cells): 11.4 µM (active)
IC50 (Vero): 10.4 µM (active)

COc1ccc(/N=C\c2oc3ccc4ccccc4c3c2O)cc1
IC50 [6]: > 100 µM (inactive)
IC50 (Insulin-degrading enzyme): > 55.9 µM (not active)
IC50 [7]: > 55.7 µM (not active)
IC50 [8]: 10 µM (active)
IC50 (Prothrombin): 3.81 µM (active)

O=C(O)/C=C/c1c2ccc(=O)c(O)c-2oc2c(O)c(O)ccc12
IC50 [4]: 2.73 µM (active)
IC50 [5]: 0.332 µM (active)
IC50 [9]: 15.8 µM (active)

Oc1ccc(Nc2nc(N3CCCC3)c3ccccc3n2)cc1
AC50 [10]: 13.3 µM (active)
AC50 [11]: 6.91 µM (active)
IC50 (Bcl-2-like protein 10): 43.9 µM (active)
EC50 [12]: 5.96 µM (active)
EC50 (HT-1080): 25.7 µM (active)
EC50 [13]: < 0.2 µM (active)
EC50 [14]: 9.1 µM (active)
IC50 (Large T antigen): 4.72 µM (active)
EC50 [15]: 12.9 µM (active)
EC50 [16]: > 120 µM (not active)
AC50 (INS1): 7.85 µM (active)
EC50 [17]: 2.11 µM (active)
EC50 (H4): > 120 µM (not active)
